Literature values, collected in PubChem BioAssay AID1259409 (Chemical Carcinogenesis Research Information System (CCRIS), 2018).

Tested on: rodent chemically induced tumor inhibition, incidence and multiplicity
Experiment: CCRIS tumor inhibitor studies
Details: Carcinogen: 7,12-DIMETHYLBENZ[A]ANTHRACENE [57-97-6]; Dose [Inhibitor]: 85 NMOL IN 0.1 ML ACETONE 2X/WK FOR 20 WK 1 HR PRIOR TO EACH PROMOTER DOSE (STUDY DURATION: 21 WK); Route [Inhibitor]: DERMAL; Species: MOUSE; Strain/Sex: ICR/FEMALE; Target Tissue: Type of Lesion: SKIN: PAPILLOMA; Dose [Carcinogen]: 390 NMOL IN 0.1 ML ACETONE ONCE (STUDY DURATION: 21 WK); Promoter: 12-O-TETRADECANOYL-13-ACETATE [16561-29-8]

**Q.** For COc1ccc(-c2oc3c(OC)c(OC)c(OC)c(OC)c3c(=O)c2OC)cc1OC, which “tumour outcome (control, treated, inhibition, significance)” value is on record?
**A.** 100%, 80%, 20%, not calculated
